Consider 11 compounds from ChEMBL document CHEMBL1201862, “PubChem BioAssay data set” (2004).

Among the test systems are A549; CAKI-1; COLO 205; DU-145; HOP-92; K562; MCF7; MDA-MB-435; NCI-H23; OVCAR-5; OVCAR-8; RPMI-8226; SF-295; SNB-75; SR; SW-620; TK-10; UO-31; HCC 2998.
Test in all cases: NCI tumour cell line growth inhibition, 48 h

SMILES strings stand for the structures.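 Test compounds were applied to cells in 96-well plates for 48 hours at 5 doses. GI50 = concentration required for 50% inhibition of growth.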 The source made the active and inactive calls. Rule as the data show it: active = GI50 up to about 1.1 µM and inactive = higher.

For `Cc1cc(SCC(=O)c2ccccc2)nc2ccccc12`, the GI50 was 67.1 µM (inactive) in the assay on A549; > 100 µM (inactive) in the assay on CAKI-1; > 100 µM (inactive) with COLO 205; > 100 µM (inactive) with DU-145; > 100 µM (inactive) with HOP-92; > 100 µM (inactive) in the assay on K562. Further, the GI50 in the assay on MCF7 was > 100 µM (inactive); in the assay on MDA-MB-435 it was > 100 µM (inactive); with NCI-H23, > 100 µM (inactive); in the assay on OVCAR-5, 72.9 µM (inactive); in the assay on OVCAR-8, > 100 µM (inactive); with RPMI-8226, > 100 µM (inactive). Also, the GI50 with SF-295 was > 100 µM (inactive); in the assay with SNB-75, 36.7 µM (inactive); with SR it was > 100 µM (inactive); with SW-620 it was > 100 µM (inactive); with TK-10, > 100 µM (inactive); in the assay with UO-31 it was 73.5 µM (inactive).
With `O=C(O)CSCc1cccc2ccccc12`, the GI50 in the assay with A549, in the assay on CAKI-1, with COLO 205, in the assay with DU-145, in the assay with HOP-92 and in the assay with K562 was > 100 µM (inactive) in each case. For the same compound, the GI50 with MCF7, in the assay with MDA-MB-435, with NCI-H23, in the assay on OVCAR-5, with OVCAR-8 and with RPMI-8226 was > 100 µM (inactive) in each case. Further, the GI50 in the assay on SF-295 was > 100 µM (inactive); with SNB-75 it was > 100 µM (inactive); in the assay on SR it was > 100 µM (inactive); in the assay with SW-620, > 100 µM (inactive); with TK-10, 48.8 µM (inactive); in the assay with UO-31, > 100 µM (inactive).
Consider `C/C(=N\Nc1ccc2ccccc2n1)c1ccccc1O`, for which the GI50 in the assay with A549 is > 100 µM (inactive); in the assay on CAKI-1 it was > 100 µM (inactive); in the assay on COLO 205, > 100 µM (inactive); in the assay with DU-145, > 100 µM (inactive); in the assay on HOP-92 it was > 100 µM (inactive); in the assay with K562 it was 7.38 µM (inactive). The GI50 is 5.31 µM (inactive) with MCF7; > 100 µM (inactive) in the assay with MDA-MB-435; > 100 µM (inactive) with NCI-H23; > 100 µM (inactive) in the assay with OVCAR-5; 56.1 µM (inactive) with OVCAR-8; 7.23 µM (inactive) in the assay on RPMI-8226. The GI50 is 8.07 µM (inactive) with SF-295; < 0.01 µM (active) with SNB-75; 3.15 µM (inactive) in the assay with SR; > 27.6 µM (inactive) in the assay on SW-620; > 86.3 µM (inactive) in the assay with TK-10; 70.8 µM (inactive) in the assay with UO-31.
As for `Cc1cccc2nc(-c3ccccc3)cc(=O)n12`, the GI50 in the assay on A549 was > 100 µM (inactive); in the assay on COLO 205, > 100 µM (inactive); with DU-145, > 100 µM (inactive); in the assay on HCC 2998 it was > 100 µM (inactive); in the assay with HOP-92, 61.7 µM (inactive); in the assay with K562, > 100 µM (inactive). For the same compound, the GI50 was 50.2 µM (inactive) with MCF7; > 10 µM (inactive) in the assay on MDA-MB-435; > 100 µM (inactive) in the assay with NCI-H23; > 100 µM (inactive) in the assay with OVCAR-5; 88.3 µM (inactive) in the assay with OVCAR-8; > 100 µM (inactive) in the assay with RPMI-8226. Also, the GI50 with SF-295 is > 100 µM (inactive); in the assay with SR, 87.5 µM (inactive); in the assay with SW-620, > 100 µM (inactive); with TK-10, 68.7 µM (inactive).
Take `Oc1ccc(Cl)cc1-c1nc(S)nc(-c2ccccc2)c1Cl`: the GI50 in the assay on A549 is > 100 µM (inactive); in the assay on CAKI-1, 48.1 µM (inactive); in the assay on COLO 205, > 100 µM (inactive); with DU-145, > 70.6 µM (inactive); in the assay with HOP-92, 69.8 µM (inactive); with K562, > 100 µM (inactive). Further, the GI50 in the assay with MCF7, in the assay with MDA-MB-435, in the assay with NCI-H23, in the assay on OVCAR-5, with OVCAR-8 and in the assay with RPMI-8226 was > 100 µM (inactive) each time. Further, the GI50 in the assay on SF-295 was 28.6 µM (inactive); in the assay with SNB-75, 18.9 µM (inactive); with SR, > 100 µM (inactive); in the assay on SW-620, > 100 µM (inactive); in the assay on TK-10, 49.1 µM (inactive); in the assay on UO-31 it was > 88.5 µM (inactive).
In the case of `O=C1/C(=C/c2cc3c(=O)c4ccccc4sc3s2)NC(=S)N1c1ccccc1`, the GI50 in the assay on CAKI-1 was > 100 µM (inactive); with COLO 205, > 100 µM (inactive); in the assay with DU-145 it was > 100 µM (inactive); with HCC 2998, > 100 µM (inactive); in the assay with K562, 40.6 µM (inactive); with MCF7 it was > 100 µM (inactive). Besides, the GI50 in the assay on MDA-MB-435 is > 100 µM (inactive); with NCI-H23, > 100 µM (inactive); in the assay on OVCAR-5 it was > 100 µM (inactive); with OVCAR-8, > 100 µM (inactive); in the assay on RPMI-8226, > 100 µM (inactive); in the assay on SF-295, 66.4 µM (inactive). For the same compound, the GI50 is 5.11 µM (inactive) in the assay with SNB-75; 12.8 µM (inactive) in the assay on SR; > 100 µM (inactive) with SW-620; > 100 µM (inactive) in the assay with TK-10; > 100 µM (inactive) in the assay with UO-31.
As to `COC(=O)c1ccc(NCC2=CC(=O)C=CC2=O)cc1O`, the GI50 with A549 was 32.6 µM (inactive); with CAKI-1 it was 18.6 µM (inactive); in the assay on COLO 205, 13.2 µM (inactive); in the assay on DU-145 it was 15.2 µM (inactive); with HOP-92, 2.92 µM (inactive); with K562, 3.33 µM (inactive). Moreover, the GI50 in the assay with MCF7 was 20.8 µM (inactive); in the assay on MDA-MB-435 it was 29.4 µM (inactive); with NCI-H23, 17.9 µM (inactive); in the assay on OVCAR-5, 18.8 µM (inactive); with OVCAR-8 it was 15.5 µM (inactive); in the assay with SF-295 it was 17.7 µM (inactive). Moreover, the GI50 in the assay on SNB-75 is 19 µM (inactive); in the assay on SR it was > 100 µM (inactive); in the assay on SW-620, 24.3 µM (inactive); with TK-10, 14.4 µM (inactive); in the assay on UO-31, 12.7 µM (inactive).
On to `CN1CCN(C(=S)N(C(=O)c2ccco2)C2CCCCC2)CC1`, for which the GI50 in the assay on A549, with COLO 205, in the assay with DU-145, in the assay with HCC 2998, in the assay with HOP-92 and in the assay with K562 was > 100 µM (inactive) in each case. The GI50 in the assay with MCF7, with MDA-MB-435, with NCI-H23, in the assay with OVCAR-5, in the assay on OVCAR-8 and in the assay on RPMI-8226 was > 100 µM (inactive) throughout. Also, the GI50 with SF-295 was > 100 µM (inactive); in the assay with SNB-75, 50.7 µM (inactive); in the assay with SR, > 100 µM (inactive); in the assay with SW-620 it was > 100 µM (inactive); in the assay on TK-10, > 100 µM (inactive); with UO-31, > 100 µM (inactive).
For `COc1ccc(-c2sc(Br)c3c2C(=O)C2OC(=O)NC32)cc1OC` (stereo not drawn), the GI50 in the assay on A549, in the assay with CAKI-1, in the assay with COLO 205, in the assay with DU-145, with HOP-92 and in the assay on K562 was > 100 µM (inactive) in each case. Further, the GI50 with MCF7, with MDA-MB-435, with NCI-H23, in the assay on OVCAR-5, with OVCAR-8 and with RPMI-8226 was > 100 µM (inactive) each time. Moreover, the GI50 with SF-295, in the assay on SNB-75, in the assay on SR, in the assay on SW-620, in the assay on TK-10 and in the assay on UO-31 was > 100 µM (inactive) each time.
Take `COC(=O)/C(=C(\C)NC(C)=O)c1c(C(=O)OC)[nH]c2ccccc12`: the GI50 in the assay on A549, in the assay with CAKI-1, with COLO 205, with DU-145, in the assay on HCC 2998 and with HOP-92 was > 100 µM (inactive) in each case. The GI50 in the assay on K562, with MCF7, with MDA-MB-435, in the assay with NCI-H23, in the assay on OVCAR-5 and with OVCAR-8 was > 100 µM (inactive) each time. The GI50 in the assay on RPMI-8226, in the assay with SF-295, with SR, in the assay on SW-620, in the assay on TK-10 and in the assay with UO-31 was > 100 µM (inactive) each time.
On to `O=C1NC(Cc2c[nH]c3ccccc23)C(=O)N2C(c3ccccc3)c3[nH]c4ccccc4c3C[C@@H]12` (stereo partly drawn), for which the GI50 with A549 was 25.8 µM (inactive); with CAKI-1 it was 25.5 µM (inactive); in the assay with COLO 205 it was 21.1 µM (inactive); with DU-145, 32.3 µM (inactive); with HOP-92, 25.1 µM (inactive); with K562 it was 21 µM (inactive). Besides, the GI50 is 15.7 µM (inactive) in the assay with MCF7; 18.8 µM (inactive) in the assay on MDA-MB-435; 27.7 µM (inactive) in the assay on NCI-H23; 22 µM (inactive) in the assay on OVCAR-5; 31.3 µM (inactive) in the assay with OVCAR-8; 20 µM (inactive) in the assay on RPMI-8226. Moreover, the GI50 in the assay on SF-295 was 15.3 µM (inactive); in the assay with SR it was 12.8 µM (inactive); in the assay with SW-620 it was 31.9 µM (inactive); with TK-10, 26.9 µM (inactive); in the assay on UO-31, 23.5 µM (inactive).
